# B1: oncostatin M (protein, UniProt P13725 26-221, looked up)
# Oncostatin-M: AAIGSCSKEYRVLLGQLQKQTDLMQDTSRLLDPYIRIQGLDVPKLREHCRERPGAFPSEETLRGLGRRGFLQTLNATLGCVLHRLADLEQRLPKAQDLERSGLNIEDLEKLQMARPNILGLRNNIYCMAQLLDNSDTAEPTKAGRGASQPPTPTPASDAFQRKLEGCRFLHGYHRFMHSVGRVFSKWGESPNRSRR
# Experiments:
# P-gp (human MDR1, ABCB1) [1] = assay: MDCK-MDR1 permeability (blood-brain barrier permeability); conditions: dog
# [2] = molecular target: T1, recombinant full length human kinase MNK2 (Homo sapiens, UniProt Q9HBH9); assay: MNK2 radiometric kinase activity assay; assay type: biochemical
# T1 construct: the recombinant full length human kinase MNK2; made in house; host or cells: insect cells
# P-gp (human MDR1, ABCB1) [3] = assay: in vitro; conditions: dog, MDCK-MDR1
# [4] = tested on: eIF4E phosphorylation at Serine 209 in HEK 293 cells; assay: eIF4E phosphorylation in HEK 293 cells (phospho-specific antibody, fluorescent plate reader); assay type: cell-based; conditions: Homo sapiens, HEK293; eIF4E phosphorylation at Serine 209, 2 hours exposure; read-out: HEK 293 cell;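 further: Well-level p-eIF4E immunofluorescence normalized to DAPI signal, expressed as percent eIF4E phosphorylation, with IC50 derived from concentration-response curves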
# in vitro = conditions: mouse, microsomes
# [5] = molecular target: T2, recombinant full-length human kinase MNK1 (Homo sapiens, UniProt Q9BUB5); assay: MNK1 radiometric kinase activity assay; assay type: biochemical
# T2 construct: the recombinant full-length human kinase MNK1; made in house; host or cells: insect cells
# [6] = tested on: eIF4E phosphorylation in hDRGs; assay: p-eIF4E immunofluorescence in cultured human dorsal root ganglion cells (hDRGs); assay type: cell-based; conditions: OSM 10 and 50 ng/ml, 30 min
# Description: For all human DRG experiments, DRGs were recovered from organ donors at the Southwest Transplant Alliance under an IRB approved protocol at University of Texas at Dallas. DRGs were recovered within 3 hrs of cross clamp. DRGs were recovered and taken back to the University of Texas lab where they were cultured using the protocol described previously. Cultures were grown on glass coverslips for microscopy. Coverslips were coated with poly-D-lysine and laminin to improve neuronal adherence to the coverslips. Cultures of human DRG neurons were grown for 4-7 days prior to treatment with OSM. OSM treatment was done in culture media for a period of 30 min. Cells were stained with antibodies using the same protocol as described above for HEK293 cells. Imaging was done on an Olympus FV1200 microscope and image analysis was done with CellSens software. Statistical analysis was done with Graphpad Prism V8.
# Human DRG recovery and other experimental protocols were the same as described herein.
# T1 sequence (Q9HBH9 whole entry): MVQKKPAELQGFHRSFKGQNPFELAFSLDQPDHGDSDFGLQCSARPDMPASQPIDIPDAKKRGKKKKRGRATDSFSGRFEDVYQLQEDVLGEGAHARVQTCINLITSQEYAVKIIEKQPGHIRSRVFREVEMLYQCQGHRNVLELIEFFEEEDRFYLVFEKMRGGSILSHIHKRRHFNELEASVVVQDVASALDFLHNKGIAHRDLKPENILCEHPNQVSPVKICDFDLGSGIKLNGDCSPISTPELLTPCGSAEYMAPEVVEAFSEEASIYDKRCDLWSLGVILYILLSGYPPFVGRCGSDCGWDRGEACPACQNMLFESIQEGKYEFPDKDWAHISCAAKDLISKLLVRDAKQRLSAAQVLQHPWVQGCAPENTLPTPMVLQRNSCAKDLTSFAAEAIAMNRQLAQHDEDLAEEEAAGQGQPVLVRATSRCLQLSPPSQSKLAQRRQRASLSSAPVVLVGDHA
# T2 sequence (Q9BUB5 whole entry): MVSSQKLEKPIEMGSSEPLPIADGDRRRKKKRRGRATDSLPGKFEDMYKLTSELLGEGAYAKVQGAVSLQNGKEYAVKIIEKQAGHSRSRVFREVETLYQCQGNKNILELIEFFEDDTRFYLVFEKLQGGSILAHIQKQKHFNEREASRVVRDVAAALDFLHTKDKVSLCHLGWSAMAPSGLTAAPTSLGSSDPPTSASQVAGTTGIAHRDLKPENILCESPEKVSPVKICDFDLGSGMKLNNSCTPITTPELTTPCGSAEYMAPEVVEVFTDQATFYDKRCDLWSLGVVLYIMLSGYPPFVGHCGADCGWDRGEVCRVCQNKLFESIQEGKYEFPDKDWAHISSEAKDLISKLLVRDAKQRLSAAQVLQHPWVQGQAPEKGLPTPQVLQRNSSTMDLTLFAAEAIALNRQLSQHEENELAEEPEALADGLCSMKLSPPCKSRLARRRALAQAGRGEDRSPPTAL
Molecule,"efflux ratio at 5 uM (P-gp (human MDR1, ABCB1) [1])",IC50 [2] [nM],"Papp A→B at 5 uM (P-gp (human MDR1, ABCB1) [3]) [×10⁻⁶ cm/s]","Papp B→A at 5 uM (P-gp (human MDR1, ABCB1) [3]) [×10⁻⁶ cm/s]",IC50 [4] [nM],half-life (in vitro) [min],IC50 [5] [nM],phosphorylation of eIF4E in hDRGs (stimulus) [6]
"Cc1cc(Nc2cc(NC(=O)C3CC3)ncn2)c(=O)n2c1C(=O)NC21CCC2(CC1)CN2 (centres unmarked) [4ET-03-040, N-(6-((8″-methyl-1″,5″-dioxo-1″,5″-dihydro-2″H-dispiro[aziridine-2,1′-cyclohexane-4′,3″-imidazo[1,5-a]pyridin]-6″-yl)amino)pyrimidin-4-yl)cyclopropanecarboxamide]",2.4,2,0.6,1.6,27.4,77,38.6,–
B1,–,–,–,–,–,–,–,increased phosphorylation of eIF4E

# Source: patent US20250186436A1 (4E Therapeutics, Inc., priority 2021, published 2025)
